The values that follow come from patent publication US10500222B2, “Compositions and methods relating to treatment of infection” (Wayne State University, priority 2015, dated 2019).

For test [1], the system named is P. aeruginosa ATCC strain 19660. Kind of test: Quantification of viable bacteria (plate count), strain 19660 infection. The note with it: vs PBS. Format: in vivo, C57BL/6 (B6) mice. On the procedure:
(§1) The left eyes of B6 mice (n=5/group/time) were injected with 5 μl of 2 μg/μl glycyrrhizin (GLY) (Sigma-Aldrich, St. Louis, Mo.) or PBS (control) subconjunctivally, one day before infection. Similar treatment was done using carbenoxolone (CBX) (Sigma-Aldrich, St. Louis, Mo.). All mice were injected intraperitoneally (IP) at 1 and 3 days p.i. with 100 μl of GLY (2 μg/μl) or CBX (1 μg/μl). PBS served as control for all these experiments. In a separate similar experiment mice were treated one day before infection with GLY subconjunctivally and injected intraperitoneally (i.p.) with GLY plus recombinant (r) HMGB1 (1 μg/100 μl) or GLY plus PBS. IP injections were similarly given at 1 and 3 days p.i. In an additional experiment, KEI 1025 infected B6 mice were treated with 5 μl of 2 μg/μl GLY subconjunctivally at 6 hours p.i. and injected intraperitoneally at 1 and 3 days p.i. with 100 μl of GLY (2 μg/μl).
Mice were sacrificed at 3 and 5 days p.i. and KEI 1025 or ATCC strain 19660 infected corneas from GLY, CBX or PBS (or GLY+/−rHMGB1) treated B6 mice were harvested (n=5/group/time). Each cornea was homogenized in 1 ml of sterile saline (0.85% NaCl, pH 7.4) containing 0.25% BSA. A 100 μl of the corneal homogenate was serially diluted (1:10) in sterile saline containing 0.25% BSA. […] Plates were incubated overnight at 37° C. and viable bacteria manually counted. […]

Test [2] relates to P. aeruginosa ATCC strain 19660 infected cornea. Description: Ocular response to bacterial infection (clinical score, slit lamp), strain 19660 keratitis. Format: in vivo, C57BL/6 (B6) mice. The conditions noted are these: pretreatment subconj. + IP, vs PBS.
Description: P. aeruginosa strains, KEI 1025, a non-cytotoxic clinical isolate strain expressing exoT and exoS, and not expressing exoU, described in Estrellas P S, Jr., et al., Curr Eye Res. 2000; 20:157-165 (obtained from Kresge Eye Institute, Detroit, Mich.), and a cytotoxic strain, 19660, expressing exoU, described in Finck-Barbancon V, et al., Mol Microbiol. 1997; 25:547-557; and Fleiszig S M, et al., Infect Immun. 1997; 65:579-586 (obtained from American Type Culture Collection, ATCC, Manassas, Va.), were grown in peptone tryptic soy broth (PTSB) medium in a rotary shaker water bath at 37° C. and 150 rpm for 18 h to an optical density (measured at 540 nm) between 1.3-1.8. Bacterial cultures were pelleted by centrifugation at 5,500 g for 10 min. Pellets were washed once with sterile saline, re-centrifuged, re-suspended and diluted in sterile saline. Anesthetized (using anhydrous ethyl ether) mice were placed beneath a stereoscopic microscope at 40× magnification. The left cornea was scarified with three 1-mm incisions using a sterile 25^5/8 gauge needle. The wounded corneal surface was topically treated with 5 μl containing 1×10^7 CFU/μl (KEI 1025) or 1×10^6 CFU/μl (ATCC strain 19660) of the P. aeruginosa suspension.
An established corneal disease grading scale, described in detail in Hazlett L D, et al., Invest Ophthalmol Vis Sci. 1987; 28:1978-1985, was used to assign a clinical score value to each infected eye at 1, 3 and 5 days post infection (p.i.). Clinical scores were designated as: 0=clear or slight opacity, partially or fully covering the pupil; +1=slight opacity, fully covering the anterior segment; +2=dense opacity, partially or fully covering the pupil; +3=dense opacity, covering the entire anterior segment; and +4=corneal perforation or phthisis. Clinical scores were used to statistically compare disease severity and were accompanied by photographs using a slit lamp (5 days p.i.) to confirm and illustrate the response.
as §1, with “In an additional experiment, KEI 1025 infected B6 mice were treated with 5 μl of 2 μg/μl GLY subconjunctivally at 6 hours p.i. and injected intraperitoneally at 1 and 3 days p.i. with 100 μl of GLY (2 μg/μl).” left out

For test [3], the system named is mRNA levels in P. aeruginosa ATCC strain 19660 infected cornea. Kind of test: Real time RT-PCR of cornea, strain 19660 infection. Format: in vivo, C57BL/6 (B6) mice. The note with it: vs PBS. On the procedure: as §1
KEI 1025 or ATCC strain 19660 infected GLY or PBS treated mice were sacrificed at 5 days p.i. and the normal, contralateral (uninfected) and infected cornea was harvested. For each cornea, total RNA was isolated (RNA STAT-60™; Tel-Test, Friendswood, Tex.) according to the manufacturer's instructions. Upon spectrophotometric quantification at 260 nm, 1 μg of each RNA sample was reverse transcribed using Moloney-murine leukemia virus (M-MLV) reverse transcriptase (Invitrogen, Carlsbad, Calif.) to produce a cDNA template for the PCR reaction. cDNA products were diluted 1:25 with diethylpyrocarbonate (DEPC)-treated water. A 2 μl aliquot of diluted cDNA was used for the real-time RT-PCR reaction with Real-Time SYBR® Green/Fluorescein PCR Master Mix (Bio-Rad) and primer concentrations of 10 μM (total 10 μl reaction volume). After a pre-programmed hot start cycle (3 min at 95° C.), the parameters used for PCR amplification were: 15 sec at 95° C. and 60 sec at 60° C. with the cycles repeated 45 times. Optimal conditions for PCR amplification of cDNA were established using routine methods. mRNA levels of HMGB1, RAGE, IL-1β, TLR2, TLR4, CXCL2, TNF-α, NLR family pyrin domain containing 3 (NLRP3), NLR family CARD domain containing 4 (NLRC4), IL-12, TGF-β, IL-10, single Ig IL-1-related receptor (SIGIRR) and interleukin 1 receptor-like 1 (ST2) were tested by real-time RT-PCR (CFX Connect™ Real-Time PCR Detection System; Bio-Rad, Richmond, Calif.). The fold differences in gene expression were calculated after normalization to β-actin and expressed as the relative mRNA concentration+SEM.

Test [4] relates to P. aeruginosa ATCC 19660. Kind of test: Bacterial growth and Minimum Inhibitory Concentration (MIC), strain 19660. Format: cell-based, Pseudomonas aeruginosa. The conditions noted are these: for absorbance values of bacterial cultures: vs growth control.

Values after ≈ are worked out from the molar mass of the structure shown.

Turning to `CC1(C)[C@@H](O[C@H]2O[C@H](C(=O)O)[C@@H](O)[C@H](O)[C@H]2O[C@@H]2O[C@H](C(=O)O)[C@@H](O)[C@H](O)[C@H]2O)CC[C@]2(C)[C@H]3C(=O)C=C4[C@@H]5C[C@@](C)(C(=O)O)CC[C@]5(C)CC[C@@]4(C)[C@]3(C)CC[C@@H]12` [GLY, glycyrrhizin], the “bacterial load (plate count)” value in test [1] (3 days p.i.) and in test [1] (5 days p.i.) was “significantly reduced” each time. Besides, the clinical scores result in test [2] (1 day p.i.) is reported as “not at 1 day p.i”; in test [2] (3 days p.i.), “reduced clinical scores that were significant”; in test [2] (5 days p.i.), “reduced clinical scores that were significant”. Further, in test [2] (5 days p.i.), the “disease/opacity, slit lamp photographs” value is listed as “less disease, reduced opacity”. Also, the “mRNA levels of CXCL2” value in test [3] (strain 19660, 5 days p.i.) is recorded as “slightly, but not significantly decreased”. The “Relative mRNA levels for HMGB1” value in test [3] (strain 19660, infected cornea 5 days p.i.) is “no different”; in test [3] (strain 19660 experiment, uninfected, normal cornea), “no different”. Moreover, in test [3] (strain 19660 experiment, normal cornea), the “CXCL2 mRNA” value was “No differences”. Further, the MIC50 in test [4] (Pseudomonas aeruginosa, ATCC19660, strain 19660, 50% decrease in absorbance at 540 nm, 37° C., 18 h) worked out at 20 mg/mL (≈ 24.3 mM). The compound also gave an MIC90 in test [4] (Pseudomonas aeruginosa, ATCC19660, strain 19660, 90% decrease in absorbance at 540 nm, 37° C., 18 h) of 40 mg/mL (≈ 48.6 mM). The “Minimum Inhibitory Concentration 50 (MIC50)” value in test [4] (cytotoxic strains) turned out to be 20 milligrams/milliliter. For the same compound, the “absorbance values of bacterial cultures” value in test [4] (strain 19660, grown with 10 mg/ml GLY) is listed as “significantly reduced”; in test [4] (strain 19660, grown with 20 mg/ml GLY), “significantly reduced”; in test [4] (strain 19660, grown with 40 mg/ml GLY) it was “significantly reduced”.
